Read-outs that look alike come from different tables or passages of the source.
Experiments:
Format in all cases: cell-based
Aβ-42 = test: MSD Human (6E10) Ab 3-PLEX elisa, conditioned media of 2B7 cells: Aβ-42; conditions: for IC50: Aβ-42 (superscript c)
Procedure: (§1) Assays were conducted to determine the ability of a Compound of Formula I to modulate […], and Aβ-38.
(§2) Plates with capture antibodies were blocked for 1-2 hours at room temperature with 150 μL of the manufactures blocking reagent.
(§3) Conditioned Media: • Cultured 2B7 cells in 96 well plate with 250 uL of media per well until confluent; • Prepared serial dilutions of compounds in DMSO at 100× the final desired concentration; • Washed wells with 2B7 cells 1× with 250 uL of media; • Diluted DMSO stocks 1:100 into media: • Added 250 μL of media containing compounds (1% DMSO) to wells with 2B7 cells for 5 hours at 37° C.
(§4) Elisa Sample Prep: • Diluted conditioned media: 1 part media with 1% DMSO and 1 part blocking buffer; • 150 μL of the 250 μL of conditioned media were used.
(§5) […] CURVE SAMPLE PREP: Prepared per manufacturer's protocol (see above) • Seven point standard curve samples were prepared that contained Aβ-42, Aβ-40, and Aβ-38. The highest concentration of Aβ-42 and Aβ-3-38 was 3,000 pg/mL and the highest concentration of Aβ-40 was 10,000 pg/mL. Subsequent serial dilutions were 1:3 and the final composition of each sample was 1 part blocking buffer and 1 part cell medium containing 1% DMSO.
(§6) Overnight Sample Incubation: • Blocked plates are washed 5× with MSD wash buffer with a plate washer • 25 uL of detection antibody and blocker G reagent in MSD blocking solution is added • 25 uL of samples (1 part conditioned media containing 1% DMSO and 1 part MSD blocking buffer) are then added. • plates are incubated overnight at 4 degrees C. or 2 hours at room temp
(§7) Final Wash and Readout: • Wash wells 5× with MSD wash buffer • Added 150 μL 2×MSD read buffer • Read with MSD imager.
(§8) A-Beta peptide levels for each peptide are calculated from the standard curve using the MSD software provided with the MSD 2400 Imager. Percent vehicle values for each compound dosage were then calculated and fit to a 4 parameter curve generating IC50 values.

Aβ-40 = test: MSD Human (6E10) Ab 3-PLEX elisa, conditioned media of 2B7 cells: Aβ-40; conditions: for IC50: Aβ-40 (superscript b)
Procedure: as §1, §2, §3, §4, §5, §6, §7, §8

Aβ-38 = test: MSD Human (6E10) Ab 3-PLEX elisa, conditioned media of 2B7 cells: Aβ-38; conditions: for IC50: Aβ-38 (superscript a)
Procedure: as §1, §2, §3, §4, §5, §6, §7, §8

[1] = Homo sapiens, read-out: IC50 range
[2] = Homo sapiens, read-out: 50% reduction value

Row | SMILES | IC50 (Aβ-42; [1]) [µM] | IC50 (Aβ-38; [2]) [µM] | IC50 (Aβ-40; [2]) [µM] | IC50 (Aβ-42; [2]) [µM] | also measured
1 | CCNC(=O)O[C@H](C(C)C)C1C[C@@H](C)[C@H]2C(O1)[C@H](O)[C@@]1(C)C3CC[C@H]4C(C)(C)C(OC(=O)N5CCOCC5)CC[C@@]45C[C@@]35CC[C@]21C (stereo partly drawn) | < 1 | < 1 | – | – | inhibition at 20 µM (Aβ-40; Homo sapiens, Aβ-40, 20 μM): 25 to 75%
2 | CCOC(C)(C)[C@H](O)C1C[C@@H](C)[C@H]2C(O1)[C@H](O)[C@@]1(C)C3CC[C@H]4C(C)(C)C(O)CC[C@@]45C[C@@]35CC[C@]21C (stereo partly drawn) | – | 1 to 10 | > 10 | – | inhibition at 20 µM (Aβ-42; Homo sapiens, Aβ-42, 20 μM): < 25%
3 | C[C@@H]1CC([C@H](Oc2ncccn2)C(C)(C)O)OC2C1[C@@]1(C)CC[C@@]34C[C@@]35CCC(OC(=O)N3CCOCC3)C(C)(C)[C@@H]5CCC4[C@]1(C)[C@H]2O (stereo partly drawn) | – | – | – | > 10 | IC50 (Aβ-40; [1]): > 10 µM; inhibition at 20 µM (Aβ-38; Homo sapiens, Aβ-38, 20 μM): 25 to 75%
4 | CC1CC(C2OCC(=O)OC2(C)C)OC2C1C1(C)CCC34CC35CCC(OC3CN(C6COC6)CCO3)C(C)(C)C5CCC4C1(C)C2O (stereo not drawn) | – | – | – | – | IC50 (Aβ-42; read-out: 50% reduction value): 1 to 10 µM; IC50 (Aβ-40; read-out: 50% reduction value): 1 to 10 µM; IC50 (Aβ-38; read-out: 50% reduction value): 1 to 10 µM
5 | CC(C)CC(=O)N1CCOC(OC2CC[C@]34C[C@]35CC[C@]3(C)[C@@H]6C(OC([C@H](OC(=O)N7CCC7)C(C)C)C[C@H]6C)[C@H](O)[C@@]3(C)C5CC[C@H]4C2(C)C)C1 (stereo partly drawn) | 1 to 10 | 1 to 10 | 1 to 10 | 1 to 10 | IC50 (Aβ-40; [1]): 1 to 10 µM; IC50 (Aβ-38; [1]): 1 to 10 µM
6 | C=C(C)CO[C@@H](C1C[C@@H](C)[C@H]2C(O1)[C@H](O)[C@@]1(C)C3CC[C@H]4C(C)(C)C(O[C@H]5CN(C6COC6)CCO5)CC[C@@]45C[C@@]35CC[C@]21C)C(C)(C)O (stereo partly drawn) | < 1 | < 1 | 1 to 10 | < 1 | IC50 (Aβ-38; [1]): < 1 µM
7 | C[C@@H]1CC(COC(=O)C(C)(C)C)OC2[C@H]1[C@@]1(C)CC[C@@]34C[C@@]35CC[C@H](O[C@H]3CN(C6COC6)CCO3)C(C)(C)[C@@H]5CCC4[C@]1(C)[C@H]2O (stereo partly drawn) | – | 1 to 10 | > 10 | > 10 | –
8 | CO[C@@H](C1C[C@@H](C)[C@H]2C(O1)[C@H](O)[C@@]1(C)C3CC[C@H]4C(C)(C)C(OC(=O)NC5CNC5)CC[C@@]45C[C@@]35CC[C@]21C)C(C)(C)O (stereo partly drawn) | < 1 | < 1 | 1 to 10 | < 1 | IC50 (Aβ-40; [1]): 1 to 10 µM
9 | C[C@@H]1CC(CN(C)[C@@H](C)C(=O)O)OC2[C@H]1[C@@]1(C)CC[C@@]34C[C@@]35CC[C@H](O[C@H]3CN(C(=O)CC6CC6)CCO3)C(C)(C)[C@@H]5CCC4[C@]1(C)[C@H]2O (stereo partly drawn) [drawing 1142] | – | – | – | – | inhibition at 100 µM (Aβ-42; Homo sapiens, Aβ-42, 100 μM): 25 to 75%; % Inh. (range) (Aβ-40; Aβ-40, 100 μM, 100 µM): E^a (100 μM) E^b (100 μM) E^c (100 μM) (% inhibition of 25-75%); inhibition at 100 µM (Aβ-38; Homo sapiens, Aβ-38, 100 μM): 25 to 75%
10 | CC(C)[C@@H](OC(=O)N1CCC1)C1C[C@@H](C)[C@H]2C(O1)[C@H](O)[C@@]1(C)C3CC[C@H]4C(C)(C)C(OC(=O)N5CCn6cnnc6C5)CC[C@@]45C[C@@]35CC[C@]21C (stereo partly drawn) | – | < 1 | > 10 | < 1 | –
11 | CC(=O)N(CC1CC(C)C2C(O1)C(O)C1(C)C3CCC4C(C)(C)C(O)CCC45CC35CCC21C)C(C)C (stereo not drawn) [drawing 1213] | – | – | – | – | % Inh. (range) (Aβ-42; Aβ-42, 100 μM): E^b (100 μM) E^c (100 μM) (% inhibition of 25-75%); % Inh. (range) (Aβ-40; Aβ-40, 100 μM): E^b (100 μM) E^c (100 μM) (% inhibition of 25-75%); IC50 (Aβ-38; read-out: 50% reduction value): 1 to 10 µM
12 | CCC1CC(C)C2C(O1)C(O)C1(C)C3CCC4C(C)(C)C(O)CCC45CC35CCC21C (stereo not drawn) | – | – | – | – | % Inh. (range) (Aβ-42; Aβ-42, 20 μM): F (% inhibition of <25%); % Inh. (range) (Aβ-40; Aβ-40, 20 μM): E (% inhibition of 25-75%); % Inh. (range) (Aβ-38; Aβ-38, 20 μM): E (% inhibition of 25-75%)
13 | CCO[C@H](C(C)C)C1C[C@@H](C)[C@H]2C(O1)[C@H](O)[C@@]1(C)[C@@H]3CC[C@H]4C(C)(C)C(O[C@H]5CNCCO5)CC[C@@]45C[C@@]35CC[C@]21C (stereo partly drawn) | 1 to 10 | 1 to 10 | 1 to 10 | 1 to 10 | IC50 (Aβ-40; [1]): 1 to 10 µM
14 | C[C@@H]1CC(CN(C)[C@@H](C)C(=O)O)OC2[C@H]1[C@@]1(C)CC[C@@]34C[C@@]35CC[C@H](O[C@H]3CN(C(=O)CC6CC6)CCO3)C(C)(C)[C@@H]5CCC4[C@]1(C)[C@H]2O (stereo partly drawn) [drawing 1155] | 1 to 10 | – | – | – | inhibition at 100 µM (Aβ-40; Homo sapiens, Aβ-40, 100 μM): 25 to 75%; IC50 (Aβ-38; [1]): < 1 µM
